Among the data in patent US6448260B2, “Endothelin receptor antagonists” (SmithKline Beecham Corporation, priority 1991, dated 2002) are melting point values, retold here.

Where a name gives a salt, the structure may show the parent alone.

One may read the melting point as the temperature, or range, at which the solid turns liquid. As to `O=C(O)C1[C@H](c2ccccc2)c2ccccc2[C@H]1c1ccccc1` (racemic) (as salt: sodium) [Example 21, (1RS, 3RS)-1,3-Diphenylindane-2-carboxylic acid], the melting point is 220 to 222 °C (dec.). To `COc1ccc([C@@H]2c3ccccc3[C@H](c3cc(OC)c(OC)c(OC)c3)[C@H]2C(=O)O)cc1` (racemic) [Example 72, (1RS, 2SR, 3S R)-1-(4-Methoxyphenyl)-3-(3,4,5-trimethoxyphenyl)indane-2-carboxylic acid] belongs 197 to 198 °C; to `CCCOc1ccc2c(c1)[C@H](c1ccc(OC)cc1OC(C)C)[C@@H](C(=O)O)[C@@H]2c1ccc2c(c1)OCO2` (racemic) [Example 42, (1RS, 2SR, 3RS)-3-[4-Methoxy-2-(prop-2-yloxy)phenyl]-1-(3,4-methylenedioxyphenyl)-5-(prop-1-yloxy)indane-2-carboxylic acid], 75 to 79 °C; to `COc1ccc([C@H]2c3cc(OC)ccc3[C@@H](c3ccc4c(c3)OCO4)[C@H]2C(=O)O)cc1` (racemic) [Example 28, (1RS, 2SR, 3SR)-5-Methoxy-3-(4-methoxyphenyl)-1-(3,4-methylenedioxyphenyl)indane-2-carboxylic acid], 129 to 131 °C.

As to `CCCOc1ccc2c(c1)[C@H](c1ccc(OC)cc1OCC(C)C)[C@@H](C(=O)O)[C@@H]2c1ccc2c(c1)OCO2` (racemic) [Example 43, (1RS, 2SR, 3RS)-3-[4-Methoxy-2-(2-methylprop-1-yloxy)phenyl]-1-(3,4-methylenedioxyphenyl)-5-(prop-1-yloxy)indane-2-carboxylic acid], the melting point was in the range of 85 to 89 °C.

`C=CCc1cc(OC)ccc1[C@H]1c2cc(OCCC)ccc2[C@@H](c2ccc3c(c2)OCO3)[C@@H]1C(=O)O` (racemic) [Example 60, (1RS, 2SR, 3SR)-3-[4-Methoxy-2-(prop-2-en-1-yl)phenyl]-1-(3,4-methylenedioxyphenyl)-5-(prop-1-yloxy)indane-2-carboxylic acid] came in with a melting point of 126 to 127 °C. `CCCOc1ccc2c(c1)[C@H](c1ccc(OC)cc1OCC(=O)O)[C@@H](CNS(=O)(=O)C(F)(F)F)[C@@H]2c1ccc2c(c1)OCO2` (racemic) [Example 140, (1RS, 2SR, 3RS)-2-Trifluoromethylsulfonamidomethyl-3-(2-carboxymethoxy-4-methoxyphenyl)-1-(3,4-methylenedioxyphenyl)-5-(prop-1-yloxy)indane]: the melting point is 184 to 186 °C.

The compound `CCCCc1ccc2c(c1)[C@H](c1ccc(OC)cc1OCC(=O)O)[C@@H](C(=O)O)[C@@H]2c1ccc2c(c1)OCO2` (racemic) [Example 89, (1RS, 2SR, 3RS)-5-Butyl-3-(2-carboxymethoxy-4-methoxyphenyl)-1-(3,4-methylenedioxyphenyl) indane-2-carboxylic acid] returned a melting point of 176 to 177 °C. `CCCCOc1ccc2c(c1)[C@H](C1(OC)C=CC=CC1)[C@@H](C(=O)O)[C@@H]2c1ccc2c(c1)OCO2` (mixture of isomers) [Example 107, (1RS, 2SR, 3RS)-5-(But-1-yloxy)-3-(1-methoxyphenyl)-1-(3,4-methylenedioxyphenyl)indane-2-carboxylic acid] showed a melting point of 157 to 158 °C. For the compound `COc1ccc([C@@H]2c3ccc(O)cc3[C@H](c3ccc4c(c3)OCO4)[C@H]2C(=O)O)cc1` (racemic) [Example 81, (1RS, 2SR, 3SR)-5-Hydroxy-3-(3,4-methylenedioxyphenyl)-1-(4-methoxyphenyl)indane-2-carboxylic acid], the melting point lay within 124 to 127 °C. As for `COc1ccc([C@@H]2c3cc(O)ccc3[C@H](c3c[nH]c4ccccc34)[C@H]2C(=O)O)cc1` (racemic) [Example 109, (1RS, 2SR, 3RS)-5-Hydroxy-1-(3-indolyl)-3-(4-methoxyphenyl)indane-2-carboxylic acid], the figure is 138 to 140 °C; as for `O=C(O)[C@H]1[C@H](c2ccc3c(c2)OCO3)c2ccccc2[C@@H]1c1ccccc1` (racemic) [Example 8, (1RS, 2RS, 3SR)-1-(3,4-Methylenedioxyphenyl)-3-phenylindane-2-carboxylic acid], 186 to 187 °C. For `CCCOc1ccc2c(c1)[C@H](c1ccc(OCC)cc1OCC(=O)O)[C@@H](C(=O)O)[C@@H]2c1ccc2c(c1)OCO2` (racemic) [Example 96, (1RS, 2SR, 3RS)-3-(2-Carboxymethoxy-4-ethyloxyphenyl)-1-(3,4-methylenedioxyphenyl)-5-(prop-1-yloxy)indane-2-carboxylic acid], the melting point is 194 to 196 °C. To `COc1ccc([C@@H]2c3ccccc3[C@H](c3ccc4c(c3)OCO4)[C@H]2c2nnn[nH]2)cc1` (racemic) (hydrate or solvate) [Example 9, (1RS, 2SR, 3SR)-1-(4-Methoxyphenyl)-3-(3,4-methylenedioxyphenyl)-2-(tetrazol-5-yl)indane] belongs 155 to 157 °C; to `CCCOc1ccc2c(c1)[C@H](c1ccc(OC)cc1OCC#N)[C@@H](C(=O)O)[C@@H]2c1ccc2c(c1)OCO2` (racemic) [Example 50, (1RS,2SR,3RS)-3-(2-Cyanomethoxy-4-methoxyphenyl)-1-(3,4-methylenedioxyphenyl)-5-(prop-1-yloxy)indane-2-carboxylic acid], 199 to 201 °C.
